Experimental data as given in the NIST ThermoML archive (doi:10.1016/j.jct.2004.01.006).
± gives the expanded uncertainty stated by the source.

Columns and labels:
[1] = Molar enthalpy of transition or fusion; conditions: Crystal; Adiabatic calorimetry
[2] = Crystal; Adiabatic calorimetry

For `O=Cc1ccc(Cl)cc1Cl` [2,4-dichlorobenzaldehyde], the “Molar enthalpy of transition or fusion” value [1] was 4.892 ± 0.0167 kcal/mol and the Triple point temperature [2] was 347.24 ± 0.27 K.
